Patent publication US11459327B1, “Cycloalkyl and hetero-cycloalkyl inhibitors, preparation methods therefor, and use thereof” (Suzhou Zelgen Biopharmaceuticals Co., Ltd., priority 2019, dated 2022)

Tests used:
[1] = Pharmacokinetics test evaluation in rats, plasma concentration by LC/MS/MS; assay type: in vivo; settings: male SD rats, 15 mg/kg by gavage; for T1/2 / Tmax / AUC / Cmax: n = 4, mean; for AUC / Cmax: rat, plasma, po
Method: Male SD rats, with a body weight of about 220 g, were given 15 mg/kg solution of the compound of the invention or the control compound by gavage after overnight fasting [10% […] (captisol) and 50 mM sodium citrate (pH 5) as vehicle]. Blood samples were collected at 0.5, 1.0, 2.0, 4.0, 6.0, 8.0, 12.0 and 24 hours after the compound was administrated, and the concentrations of the compound or the control compound in plasma were determined by LC/MS/MS.
The plasma concentration-time curves of Examples 13 and 14 and control compounds were shown in FIG. 1, and the pharmacokinetics parameters were shown in Table 2: […]

[2] = tested on: NCI-H358(KRAS^G12C mutation) cells; test: Cell assay of antiproliferative activity (Celltiter-Glo, 5 days) against NCI-H358 cells; assay type: cell-based; settings: 5 days incubation
Procedure, shortened: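 Cells plated overnight, then given a 10-point compound series (stock dilutions 50 μM to 0.003 μM, 100 nL added per well) and grown 5 days. Luminescence read after 10 min shaking at room temperature. IC50 from curve fitting.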

[3] = tested on: A549(KRAS^G12S mutation) cells; test: Cell assay of antiproliferative activity (Celltiter-Glo, 5 days) against A549 cells; assay type: cell-based; settings: 5 days incubation
Method: Cell assay of antiproliferative activity of compounds against NCI-H358(KRAS^G12C mutation) and A549(KRAS^G12S mutation) cells.
40 μl phosphate buffer was added to the outer wells of the 384 microplate, and 40 μl cell suspension to be tested was added to the other wells. Then the microplate was incubated in a carbon dioxide incubator overnight.
The compounds to be tested were gradiently diluted, each compound was performed 10 concentration gradients (diluted from 50 μM to 0.003 μM) and added 100 nL to the corresponding wells in the microplate. After addition, 40 μl of phosphate buffer was added to each well in rows A and P and columns 1 and 24, and then the microplate was incubated in a carbon dioxide incubator for 5 days.
20 μL of Promega Celltiter-Glo reagent was added to each well of the microplate, and then the luminescence signal was stabilized by oscillating at room temperature for 10 min. Then PekinElmer Envision multi-label analyzer was used to read.
Finally, GraphPad Prism software was used to calculate the IC50 value of the compound and the fitting curve was drawn.
Anti-proliferative activity of the compounds of the present invention against NCI-H358(KRAS^G12C mutation) and A549(KRAS^G12S mutation) cells were shown in Table 1.

| Compound | IC50 ([2]; Homo sapiens, NCI-H358, 120 h) | IC50 ([3]; Homo sapiens, 120 h) | other results |
| --- | --- | --- | --- |
| C=C(F)C(=O)N1CCN(c2nc(OC[C@@H]3CCCN3C)nc3c2CCN(c2cccc4cccc(Cl)c24)C3)CC1CC#N (stereo partly drawn) [Control compound, reference compound] | – | – | T1/2 [1]: 2.47 h; Tmax [1]: 4.0 h; AUC [1]: 830 ng·h/mL; Cmax [1]: 123 ng/mL |
| C=CC(=O)N1CCN(c2nc(O[C@@H]3CCC[C@@H]3N(C)C)nc3c2CCN(c2cccc4cccc(Cl)c24)C3)CC1CC#N (stereo partly drawn) [Example 15, 2-(1-acroloyl-4-(7-(8-chloronaphthalen-1-yl)-2-(((cis)-2-(dimethylamino)cyclopentyl)oxy)-5,6,7,8-tetrahydropyrido[3,4-d]pyrimidin-4-yl)piperazin-2-yl) acetonitrile] | 90 nM | 13500 nM | – |
| C=CC(=O)N1CCN(c2nc(OCC3(CN(C)C)COC3)nc3c2CCN(c2cccc4cccc(Cl)c24)C3)CC1CC#N (stereo not drawn) [Example 19, 2-(1-acroloyl-4-(7-(8-chloronaphthalen-1-yl)-2-((3-((dimethylamino)methyl)oxetan-3-yl)methoxyl)-5,6,7,8-tetrahydropyrido[3,4-d]pyrimidin-4-yl)piperazin-2-yl) acetonitrile] | – | – | IC50 [2]: 4.6 nM; IC50 [3]: 8900 nM |
| C=CC(=O)N1CCN(c2nc(OCC3(COC)CC3)nc3c2CCN(c2cccc4cccc(Cl)c24)C3)CC1CC#N (stereo not drawn) [Example 20, 2-(1-acroloyl-4-(7-(8-chloronaphthalen-1-yl)-2-((1-(methoxymethyl)cyclopropyl)methoxyl)-5,6,7,8-tetrahydropyrido[3,4-d]pyrimidin-4-yl)piperazin-2-yl) acetonitrile] | 870 nM | 7700 nM | – |
| C=CC(=O)N1CCN(c2nc(OCCN(C)C3CC3)nc3c2CCN(c2cccc4cccc(C)c24)C3)CC1CC#N (stereo not drawn) [Example 70, 2-(1-acroloyl-4-(2-(2-((cyclopropyl)(methyl)amino)ethoxy)-7-(8-methylnaphthalen-1-yl)-5,6,7,8-tetrahydropyrido[3,4-d]pyrimidin-4-yl)piperazin-2-yl) acetonitrile] | 170 nM | 11500 nM | – |
| C=CC(=O)N1CCN(c2nc(OC[C@H](C)N(C)C3CC3)nc3c2CCN(c2cccc4cccc(C)c24)C3)CC1CC#N (stereo partly drawn) [Example 71, 2-(1-acroloyl-4-(2-((S)-2-(cyclopropyl(methyl)amino)propoxy)-7-(8-methylnaphthalen-1-yl)-5,6,7,8-tetrahydropyrido[3,4-d]pyrimidin-4-yl)piperazin-2-yl) acetonitrile] | 150 nM | 11500 nM | – |
| C=CC(=O)N1CCN(c2nc(OC[C@@H](C)N(C)C3CC3)nc3c2CCN(c2cccc4cccc(C)c24)C3)CC1CC#N (stereo partly drawn) [Example 72, 2-(1-acroloyl-4-(2-((R)-2-(cyclopropyl(methyl)amino)propoxy)-7-(8-methylnaphthalen-1-yl)-5,6,7,8-tetrahydropyrido[3,4-d]pyrimidin-4-yl)piperazin-2-yl) acetonitrile] | 180 nM | 10600 nM | – |
| C=CC(=O)N1CCN(c2nc(OCCN(C)CC3CC3)nc3c2CCN(c2cccc4cccc(C)c24)C3)CC1CC#N (stereo not drawn) [Example 73] | 60 nM | 3700 nM | – |
| C=CC(=O)N1CCN(c2nc(OC[C@H](C)N(C)CC3CC3)nc3c2CCN(c2cccc4cccc(C)c24)C3)CC1CC#N (stereo partly drawn) [Example 74] | 80 nM | 2600 nM | – |
| C=CC(=O)N1CCN(c2nc(OC[C@@H](C)N(C)CC3CC3)nc3c2CCN(c2cccc4cccc(C)c24)C3)CC1CC#N (stereo partly drawn) [Example 75] | 90 nM | 2800 nM | – |
| C=CC(=O)N1CCN(c2nc(OCCN(C)CC3CCC3)nc3c2CCN(c2cccc4cccc(C)c24)C3)CC1CC#N (stereo not drawn) [Example 82, 2-(1-acroloyl-4-(2-(2-((cyclobutylmethyl)(methyl)amino)ethoxy)-7-(8-methylnaphthalen-1-yl)-5,6,7,8-tetrahydropyrido[3,4-d]pyrimidin-4-yl)piperazin-2-yl) acetonitrile] | 160 nM | 6600 nM | – |
| C=CC(=O)N1CCN(c2nc(OCCOC3CC3)nc3c2CCN(c2cccc4cccc(C)c24)C3)CC1CC#N (stereo not drawn) [Example 93, 2-(1-acroloyl-4-(2-(2-cyclopropoxyethyoxy)-7-(8-methylnaphthalen-1-yl)-5,6,7,8-tetrahydropyrido[3,4-d]pyrimidin-4-yl)piperazin-2-yl) acetonitrile] | 310 nM | 7800 nM | – |

The next lines start with results.

| IC50 ([2]; Homo sapiens, NCI-H358, 120 h) | IC50 ([3]; Homo sapiens, 120 h) | Compound | other results |
| --- | --- | --- | --- |
| 55 nM | 6000 nM | C=C(F)C(=O)N1CCN(c2nc(OCC3(CN(C)C)CC3)nc3c2CCN(c2cccc4cccc(Cl)c24)C3)CC1CC#N (stereo not drawn) [Example 13] | T1/2 [1]: 2.33 h; Tmax [1]: 4.0 h; bioavailability ([1]; conclusion in words): excellent bioavailability; metabolic properties in rats compared with the control compound ([1]; higher Cmax and higher plasma exposure AUC): better metabolic properties in rats; AUC [1]: 1400 ng·h/mL; Cmax [1]: 163 ng/mL |
| 90 nM | 6200 nM | C=C(F)C(=O)N1CCN(c2nc(OCCN(C)C3CCC3)nc3c2CCN(c2cccc4ccc(F)c(Cl)c24)C3)CC1CC#N (stereo not drawn) [Example 14, 2-(4-(7-(8-chloro-7-fluoronaphthalen-1-yl)-2-(2-(cyclobutyl(methyl)amino)ethoxy)-5,6,7,8-tetrahydropyrido[3,4-d]pyrimidin-4-yl)-1-(2-fluoroacroloyl)piperazin-2-yl) acetonitrile] | T1/2 [1]: 1.69 h; Tmax [1]: 1.25 h; AUC [1]: 392 ng·h/mL; Cmax [1]: 85.1 ng/mL |
| 27 nM | 7800 nM | C=CC(=O)N1CCN(c2nc(OCCN(C)C3CCC3)nc3c2CCN(c2cccc4ccc(F)c(C)c24)C3)CC1CC#N (stereo not drawn) [Example 21, 2-(1-acroloyl-4-(2-(2-(cyclobutyl(methyl)amino)ethyoxyl)-7-(7-fluoro-8-methylnaphthalen-1-yl)-5,6,7,8-tetrahydropyrido[3,4-d]pyrimidin-4-yl)piperazin-2-yl) acetonitrile] | – |
| 91 nM | 2200 nM | C=C(F)C(=O)N1CCN(c2nc(OCCN(C)C3CCC3)nc3c2CCN(c2cccc4ccc(F)c(C)c24)C3)CC1CC#N (stereo not drawn) [Example 22, 2-(4-(2-(2-(cyclobutyl(methyl)amino)ethyoxyl)-7-(7-fluoro-8-methylnaphthalen-1-yl)-5,6,7,8-tetrahydropyrido[3,4-d]pyrimidin-4-yl)-1-(2-fluoroacroloyl)piperazin-2-yl) acetonitrile] | – |
| 860 nM | 3500 nM | C=CC(=O)N1CCN(c2nc(O[C@@H](C)CN(C)CC3CC3)nc3c2CCN(c2cccc4cccc(C)c24)C3)CC1CC#N (stereo partly drawn) [Example 76, 2-(1-acroloyl-4-(2-(((S)-1-((cyclopropylmethyl)(methyl)amino)propan-2-yl)oxy)-7-(8-methylnaphthalen-1-yl)-5,6,7,8-tetrahydropyrido[3,4-d]pyrimidin-4-yl)piperazin-2-yl) acetonitrile] | – |
| 1800 nM | 2700 nM | C=CC(=O)N1CCN(c2nc(O[C@H](C)CN(C)CC3CC3)nc3c2CCN(c2cccc4cccc(C)c24)C3)CC1CC#N (stereo partly drawn) [Example 77, 2-(1-acroloyl-4-(2-(((R)-1-((cyclopropylmethyl)(methyl)amino)propan-2-yl)oxy)-7-(8-methylnaphthalen-1-yl)-5,6,7,8-tetrahydropyrido[3,4-d]pyrimidin-4-yl)piperazin-2-yl) acetonitrile] | – |
| 50 nM | 2800 nM | C=CC(=O)N1CCN(c2nc(OCCN(C)[C@@H](C)C3CC3)nc3c2CCN(c2cccc4cccc(C)c24)C3)CC1CC#N (stereo partly drawn) [Example 78] | – |
| 40 nM | 3100 nM | C=CC(=O)N1CCN(c2nc(OCCN(C)[C@H](C)C3CC3)nc3c2CCN(c2cccc4cccc(C)c24)C3)CC1CC#N (stereo partly drawn) [Example 79, 2-(1-acroloyl-4-(2-(2-(((R)-1-cyclopropylmethyl)(methyl)amino)ethoxy)-7-(8-methylnaphthalen-1-yl)-5,6,7,8-tetrahydropyrido[3,4-d]pyrimidin-4-yl)piperazin-2-yl) acetonitrile] | – |
| 40 nM | 7500 nM | C=CC(=O)N1CCN(c2nc(OCCN(C)C3CCC3)nc3c2CCN(c2cccc4cccc(C)c24)C3)CC1CC#N (stereo not drawn) [Example 81, 2-(1-acroloyl-4-(2-(2-((cyclobutyl)(methyl)amino)ethoxy)-7-(8-methylnaphthalen-1-yl)-5,6,7,8-tetrahydropyrido[3,4-d]pyrimidin-4-yl)piperazin-2-yl) acetonitrile] | – |
